In PMC7767381, “Exploring the Anti-Cancer Mechanism of Novel 3,4′-Substituted Diaryl Guanidinium Derivatives” (Pharmaceuticals, 2020):
“And” between values parts separate entries of the source, which are not always exact repeats. Equal values may be shown once.

Key:
HL-60 cells = experiment: Annexin V-FITC/PI flow cytometry apoptosis assay in HL-60; assay type: cell-based, human; settings: 48 h; for induction of apoptosis: annexin V-FITC/PI; for viability at 5 µM: HL-60, 5 μM
Protocol: We have previously reported that compound 1 induces 68.9 ± 0.1% apoptosis in HL-60 cells at a 10 μM concentration after 48 h. Accordingly, in order to evaluate the apoptotic effect of the most relevant derivatives (2, 3, and 4), HL-60 cells were treated with these compounds (at 5 µM, 5 µM, and 4 µM concentration, respectively) for 48 h, stained with annexin V-FITC/PI and analysed using flow cytometry (Figure 5).
Apoptosis was analysed using annexin V fluorescein isothiocyanate (FITC) and propidium iodide (PI). HL-60 cells were seeded at a density of 2 × 10^5 cells/mL in 12 well plates. Cells were then treated with either vehicle (0.5% ethanol), 2 (5 µM), 3 (5 µM), or 4 (4 µM) for 48 h. Following treatment, HL60 cells were collected and washed with annexin V binding buffer (5 mM HEPES, 70 mM NaCl, 1.25 mM CaCl2 pH 7.4) and stained with annexin V-FITC (iQ Corporation, Groningen, The Netherlands) for 20 min. Following washing with annexin V binding buffer, cells were resuspended in PI (0.5 µg/mL) in binding buffer and analysed on BD FACS Canto II flow cytometer (BD Sciences) using FloJo software (Ashland, OR, USA).
Figure 5 Annexin V-FITC vs. PI flow cytometry analysis of HL-60 cancer cells treated with compounds 3 (5 μM), 2 (5 μM) and 4 (4 μM) for 48 h. These figures are representative of three independent experiments. The viable cells, early apoptotic, necrotic and late apoptotic cells are represented by the lower left, lower right, upper left and upper right quadrants, respectively. TEXT PRINTED IN THE PICTURE: 3: 2.45; 32.6; 27.1; 37.8 | 2: 0.56; 11.3; 78.1; 9.96 | 4: 1.09; 40.2; 12.4; 46.2 DOUBTS OF THE COPYIST ABOUT THIS PICTURE: All quadrant numbers are in very small print with no measure or unit; they are listed in the order upper left, upper right, lower left, lower right / 3, upper right quadrant: 32.6, partly covered by data points, 3/8 and 6/8 uncertain / 3, lower right quadrant: 37.8, partly covered by data points, 37.8 or 37.6 / 3, lower left quadrant: 27.1, small print / 2, lower left quadrant: 78.1 or 76.1 / 2, lower right quadrant: 9.96 or 9.95 or 9.98 / 4, upper right quadrant: 40.2, partly covered by data points / 4, lower right quadrant: 46.2 or 48.2, partly covered by data points / The Control and Vehicle plots also print quadrant numbers (Control: 0.16, 1.41, 97.7, 0.77; Vehicle: 0.088, 1.65, 97.3, 0.94); they are not listed because they are not test substances […]
Apoptosis was analysed using annexin V fluorescein isothiocyanate (FITC) and propidium iodide (PI). HL-60 cells were seeded at a density of 2x10^5 cells/mL in 12 well plates. Cells were then treated with either vehicle (0.5% ethanol), 2 (5 µM), 3 (5 µM) or 4 (4 µM) for 48 hours.
Following treatment, HL60 cells were collected and washed with annexin V binding buffer (5 mM HEPES, 70 mM NaCl, 1.25 mM CaCl2 pH 7.4) and stained with annexin V -FITC (iQ Corporation, Groningen, The Netherlands) for 20 minutes. Following washing with annexin V binding buffer, cells were resuspended in PI (0.5 µg/mL) in binding buffer and analysed on BD FACS Canto II flow cytometer (BD Sciences) using FloJo software (Ashlan d, Oregon, United […]
Figure S13. Compounds 3 and 4 promote strong apoptosis when inhibiting HL-60 cell viability.
For flow cytometry, HL60 cells were seeded at a density of 2x10^5 cells/mL in 12 well plates.
Cells were then treated with either vehicle (0.5% ethanol), 2 (5 µM), 3 (5 µM) or 4 (4 µM) for 48 hours. After 48 hours, cells were collected and stained with annexin V – FITC and propidium iodide. Samples were analysed by flow cytometry using the BD FACs Canto II cytometer.
Columns and bars represent the mean ± S.D. of 3 independent experiments. Statistical analysis was performed using one-way ANOVA with Dunnett’s multiple comparisons test comparing vehicle to drug treated samples. *p<0.05 and ***p<0.001.
(1 picture or pasted object on this page, not shown here)

[1] = Homo sapiens, representative plot, read-out: viable cells (lower left quadrant)

SMILES	induction of apoptosis (HL-60 cells; HL-60, 5 µM)	viability at 5 µM (HL-60 cells; [1]) [%]	melting point [°C]	induction of apoptosis (HL-60 cells; HL-60, 4 µM)	viability at 4 µM (HL-60 cells; Homo sapiens, HL-60, 4 μM, representative plot, read-out: viable cells (lower left quadrant)) [%]
Cl.Cl.N=C(N)Nc1ccc(Oc2cccc(NC(=N)Nc3ccc(Cl)c(C(F)(F)F)c3)c2)cn1 [Compound 2, 1-(4-Chloro-3-(trifluoromethyl)phenyl)-3-(3-((6-guanidinopyridin-3-yl)oxy)phenyl) guanidine dihydrochloride]	30.7 ± 11.6% and ~30%	78.1	169 to 171	–	–
Cl.N=C(N)Nc1ccc(Oc2cccc(Nc3ccc(Cl)c(C(F)(F)F)c3)c2)cc1 [Compound 3, 1-(4-(3-((4-Chloro-3-(trifluoromethyl)phenyl)amino)phenoxy)phenyl)guanidine hydrochloride]	82.5 ± 11.3% and 82%	27.1	58 to 60	–	–
Cl.N=C(N)Nc1ccc(Oc2cccc(Nc3ccc(Cl)c(C(F)(F)F)c3)c2)cn1 [Compound 4, 1-(5-(3-((4-Chloro-3-(trifluoromethyl)phenyl)amino)phenoxy)pyridin-2-yl)guanidine hydrochloride]	–	–	89 to 91	92.7 ± 5.5% and 92%	12.4
